Data as given in patent publication US20210309619A1, “ISOXAZOLIN-5-ONE DERIVATIVES AND HERBICIDES CONTAINING THE SAME AS ACTIVE INGREDIENTS” (HOKKO CHEMICAL INDUSTRY CO., LTD., priority 2018, published 2021).

Columns and labels:
Type in all cases: in vivo
Echinochloa crus-galli [1] = test: Herbicidal effect test by treatment of rice paddy soil (Test Example 1); conditions: 120 g/10 a, treated immediately after seeding, 14 days after treatment
Method: (§1) Wagner pots with an area of 1/10000 ares were filled with a paddy soil, and a compound fertilizer (N:P:K=17:17:17) was mixed after water was added, followed by soil puddling. Then, Echinochloa crus-galli, broad leaf weeds (Lindernia pyxidaria and Monochoria vaginalis) and Scirpus juncoides, 30 seeds each, were sown in a depth of 0 to 1 cm. Water was poured immediately after seeding, and the water depth was kept at about 3 cm. A subsequent management was conducted in a glass greenhouse. Immediately after that, emulsions prepared using the compounds in Table 3 below according to Formulation Example 5 were diluted with water, and a certain amount of the water-diluted agent solutions were dropped. A converted amount of the applied active ingredient corresponded to 120 g per 10 ares.
(§2) This test was conducted in a double system per one agent solution concentration area, and the herbicidal rates (%) were determined by the following equation (Math. 1) 14 days after the treatment with the agents.
(§3) Herbicidal Rate (%)={1−(Average Dry Weight (g) of Plant of Treated Area)/(Average Dry Weight (g) of Plant of Untreated Area)}×100 [Math. 1]

Lindernia pyxidaria [2] = test: as above; conditions: 120 g/10 a, treated immediately after seeding, 14 days after treatment
Method: as §1, §2, §3

Monochoria vaginalis [3] = test: as above; conditions: 120 g/10 a, treated immediately after seeding, 14 days after treatment
Method: as §1, §2, §3

Scirpus juncoides [4] = test: as above; conditions: 120 g/10 a, treated immediately after seeding, 14 days after treatment
Method: as §1, §2, §3

Echinochloa crus-galli [5] = test: Herbicidal effect test by treatment during growing period in paddy rice cultivation (Test Example 2); conditions: 120 g/10 a, treated seven days after seeding, 14 days after treatment
Excerpt: as §3
as §1, with “after addition of water,” for “after water was added,”, “greenhouse. Emulsions” for “greenhouse. Immediately after that, emulsions”, “Table 4” for “Table 3”, “with water seven days after seeding,” for “with water,”, “ares. The test was conducted in a double system per one agent solution concentration area, and the herbicidal rates (%) were determined by the equation (Math. 1) 14 days after the treatment with the agents. In this regard, the compound numbers in Table 4 are the same as those in Table 1 and Table 2 above.” for “ares.”

Lindernia pyxidaria [6] = test: as above; conditions: 120 g/10 a, treated seven days after seeding, 14 days after treatment
Excerpt: as §3
as §1, with “after addition of water,” for “after water was added,”, “greenhouse. Emulsions” for “greenhouse. Immediately after that, emulsions”, “Table 4” for “Table 3”, “with water seven days after seeding,” for “with water,”, “ares. The test was conducted in a double system per one agent solution concentration area, and the herbicidal rates (%) were determined by the equation (Math. 1) 14 days after the treatment with the agents. In this regard, the compound numbers in Table 4 are the same as those in Table 1 and Table 2 above.” for “ares.”

Monochoria vaginalis [7] = test: as above; conditions: 120 g/10 a, treated seven days after seeding, 14 days after treatment
Excerpt: as §3
as §1, with “after addition of water,” for “after water was added,”, “greenhouse. Emulsions” for “greenhouse. Immediately after that, emulsions”, “Table 4” for “Table 3”, “with water seven days after seeding,” for “with water,”, “ares. The test was conducted in a double system per one agent solution concentration area, and the herbicidal rates (%) were determined by the equation (Math. 1) 14 days after the treatment with the agents. In this regard, the compound numbers in Table 4 are the same as those in Table 1 and Table 2 above.” for “ares.”

Scirpus juncoides [8] = test: as above; conditions: 120 g/10 a, treated seven days after seeding, 14 days after treatment
Excerpt: as §3
as §1, with “after addition of water,” for “after water was added,”, “greenhouse. Emulsions” for “greenhouse. Immediately after that, emulsions”, “Table 4” for “Table 3”, “with water seven days after seeding,” for “with water,”, “ares. The test was conducted in a double system per one agent solution concentration area, and the herbicidal rates (%) were determined by the equation (Math. 1) 14 days after the treatment with the agents. In this regard, the compound numbers in Table 4 are the same as those in Table 1 and Table 2 above.” for “ares.”

Amaranthus viridis [9] = test: Herbicidal effect test by treatment of dry field farming soil (Test Example 3); conditions: 120 g/10 a, sprayed one day after seeding, 14 days after treatment
Excerpt: (§4) Herbicidal Rate (%)={1−(Average Dry Weight (g) of Plant of Treated Area)/(Average Dry Weight (g) of Plant of Untreated Area)}×100 [Math. 1] Pots with a size of 36 cm^2 were filled with a dry field farming soil (alluvium). The soil of the top layer of 1 cm and seeds of weeds, namely southern crabgrass, Echinochloa crus-galli, Chenopodium album and Amaranthus viridis, 20 seeds each, were evenly mixed, and the top layer was gently pressed. Emulsions prepared using the compounds in Table 5 below according to Formulation Example 5 were diluted with water one day after seeding, and the water-diluted agent solutions were sprayed to the soil surfaces at a ratio of 100 liters per 10 ares. A converted amount of the applied active ingredient corresponded to 120 g per 10 ares. The herbicidal effects were evaluated by the same standard as that in Test Example 1, 14 days after the treatment with the agents. In this regard, the compound numbers in Table 5 are the same as those in Table 1 and Table 2 above.

Chenopodium album [10] = test: as above; conditions: 120 g/10 a, sprayed one day after seeding, 14 days after treatment
Excerpt: as §4

Echinochloa crus-galli [11] = test: as above; conditions: 120 g/10 a, sprayed one day after seeding, 14 days after treatment
Excerpt: as §4

southern crabgrass [12] = test: as above; conditions: 120 g/10 a, sprayed one day after seeding, 14 days after treatment
Excerpt: as §4

Amaranthus viridis [13] = test: Herbicidal effect test by treatment of stem and leaf in dry field farming (Test Example 4); conditions: 120 g/10 a, stem and leaf treatment seven days after seeding, 14 days after treatment
Excerpt: as §4, with “Table 6” for “Table 5”, “water seven days” for “water one day”

Chenopodium album [14] = test: as above; conditions: 120 g/10 a, stem and leaf treatment seven days after seeding, 14 days after treatment
Excerpt: as §4, with “Table 6” for “Table 5”, “water seven days” for “water one day”

Echinochloa crus-galli [15] = test: as above; conditions: 120 g/10 a, stem and leaf treatment seven days after seeding, 14 days after treatment
Excerpt: as §4, with “Table 6” for “Table 5”, “water seven days” for “water one day”

southern crabgrass [16] = test: as above; conditions: 120 g/10 a, stem and leaf treatment seven days after seeding, 14 days after treatment
Excerpt: as §4, with “Table 6” for “Table 5”, “water seven days” for “water one day”

COC1CCCC1n1oc(=O)c(Cc2ccccc2NS(=O)(=O)C(F)(F)F)c1C (stereo not shown) [Compound 59, 1,1,1-trifluoro-N-[2-[[(2-methoxycyclopentyl)-3-methyl-5-oxoisoxazol-4-yl]methyl]phenyl]methanesulfonamide]
100%: Herbicidal rate, Echinochloa crus-galli (Echinochloa crus-galli [1]) | Herbicidal rate, Lindernia pyxidaria (Lindernia pyxidaria [2]) | Herbicidal rate, Monochoria vaginalis (Monochoria vaginalis [3]) | Herbicidal rate, Scirpus juncoides (Scirpus juncoides [4]) | Herbicidal rate, Echinochloa crus-galli (Echinochloa crus-galli [5])
60%: Herbicidal rate, Amaranthus viridis (Amaranthus viridis [9]) | Herbicidal rate, Chenopodium album (Chenopodium album [10])
80%: Herbicidal rate, Lindernia pyxidaria (Lindernia pyxidaria [6])
90%: Herbicidal rate, Monochoria vaginalis (Monochoria vaginalis [7]) | Herbicidal rate, Scirpus juncoides (Scirpus juncoides [8]) | Herbicidal rate, Echinochloa crus-galli (Echinochloa crus-galli [11]) | Herbicidal rate, southern crabgrass (southern crabgrass [12]) | Herbicidal rate, Amaranthus viridis (Amaranthus viridis [13]) | Herbicidal rate, Chenopodium album (Chenopodium album [14]) | Herbicidal rate, Echinochloa crus-galli (Echinochloa crus-galli [15]) | Herbicidal rate, southern crabgrass (southern crabgrass [16])

COC1CCCCC1n1oc(=O)c(Cc2ccccc2N(S(=O)(=O)C(F)(F)F)S(=O)(=O)C(F)(F)F)c1C (stereo not shown) [Compound 351, 1,1,1-trifluoro-N-[2-[[(2-methoxycyclohexyl)-3-methyl-5-oxoisoxazol-4-yl]methyl]phenyl]-N-(trifluoromethylsulfonyl)methanesulfonamide]
100%: Herbicidal rate, Echinochloa crus-galli (Echinochloa crus-galli [1]) | Herbicidal rate, Lindernia pyxidaria (Lindernia pyxidaria [2]) | Herbicidal rate, Monochoria vaginalis (Monochoria vaginalis [3]) | Herbicidal rate, Echinochloa crus-galli (Echinochloa crus-galli [5])
90%: Herbicidal rate, Scirpus juncoides (Scirpus juncoides [4]) | Herbicidal rate, Scirpus juncoides (Scirpus juncoides [8]) | Herbicidal rate, Amaranthus viridis (Amaranthus viridis [9]) | Herbicidal rate, Echinochloa crus-galli (Echinochloa crus-galli [11]) | Herbicidal rate, southern crabgrass (southern crabgrass [12]) | Herbicidal rate, Echinochloa crus-galli (Echinochloa crus-galli [15])
60%: Herbicidal rate, Chenopodium album (Chenopodium album [10])
80%: Herbicidal rate, Lindernia pyxidaria (Lindernia pyxidaria [6]) | Herbicidal rate, Monochoria vaginalis (Monochoria vaginalis [7]) | Herbicidal rate, Amaranthus viridis (Amaranthus viridis [13]) | Herbicidal rate, Chenopodium album (Chenopodium album [14]) | Herbicidal rate, southern crabgrass (southern crabgrass [16])

COC1CCCC1n1oc(=O)c(Cc2ccccc2N(C(=O)CC(C)C)S(=O)(=O)C(F)(F)F)c1C (stereo not shown) [Compound 119]
80%: Herbicidal rate, Lindernia pyxidaria (Lindernia pyxidaria [6]) | Herbicidal rate, southern crabgrass (southern crabgrass [16])
60%: Herbicidal rate, Amaranthus viridis (Amaranthus viridis [9]) | Herbicidal rate, Chenopodium album (Chenopodium album [10])
100%: Herbicidal rate, Echinochloa crus-galli (Echinochloa crus-galli [1]) | Herbicidal rate, Lindernia pyxidaria (Lindernia pyxidaria [2]) | Herbicidal rate, Monochoria vaginalis (Monochoria vaginalis [3]) | Herbicidal rate, Scirpus juncoides (Scirpus juncoides [4]) | Herbicidal rate, Echinochloa crus-galli (Echinochloa crus-galli [5])
90%: Herbicidal rate, Monochoria vaginalis (Monochoria vaginalis [7]) | Herbicidal rate, Scirpus juncoides (Scirpus juncoides [8]) | Herbicidal rate, Echinochloa crus-galli (Echinochloa crus-galli [11]) | Herbicidal rate, southern crabgrass (southern crabgrass [12]) | Herbicidal rate, Amaranthus viridis (Amaranthus viridis [13]) | Herbicidal rate, Chenopodium album (Chenopodium album [14]) | Herbicidal rate, Echinochloa crus-galli (Echinochloa crus-galli [15])

CCOC(=O)N(c1ccccc1Cc1c(C)n(C2CCCCC2OC)oc1=O)S(=O)(=O)C(F)(F)F (stereo not shown) [Compound 190, ethyl N-[2-[[(2-methoxycyclohexyl)-3-methyl-5-oxoisoxazol-4-yl]methyl]phenyl]-N-(trifluoromethylsulfonyl)carbamate]
90%: Herbicidal rate, Monochoria vaginalis (Monochoria vaginalis [7]) | Herbicidal rate, Scirpus juncoides (Scirpus juncoides [8]) | Herbicidal rate, Amaranthus viridis (Amaranthus viridis [9]) | Herbicidal rate, Echinochloa crus-galli (Echinochloa crus-galli [11]) | Herbicidal rate, southern crabgrass (southern crabgrass [12]) | Herbicidal rate, Amaranthus viridis (Amaranthus viridis [13]) | Herbicidal rate, Chenopodium album (Chenopodium album [14]) | Herbicidal rate, Echinochloa crus-galli (Echinochloa crus-galli [15]) | Herbicidal rate, southern crabgrass (southern crabgrass [16])
100%: Herbicidal rate, Echinochloa crus-galli (Echinochloa crus-galli [1]) | Herbicidal rate, Lindernia pyxidaria (Lindernia pyxidaria [2]) | Herbicidal rate, Monochoria vaginalis (Monochoria vaginalis [3]) | Herbicidal rate, Scirpus juncoides (Scirpus juncoides [4]) | Herbicidal rate, Echinochloa crus-galli (Echinochloa crus-galli [5])
60%: Herbicidal rate, Chenopodium album (Chenopodium album [10])
80%: Herbicidal rate, Lindernia pyxidaria (Lindernia pyxidaria [6])

COC1CCCC1n1oc(=O)c(Cc2ccccc2N(C(C)=O)S(=O)(=O)C(F)(F)F)c1C (stereo not shown) [Compound 107, N-[2-[[(2-methoxycyclopentyl)-3-methyl-5-oxoisoxazol-4-yl]methyl]phenyl]-N-(trifluoromethylsulfonyl)acetamide]
90%: Herbicidal rate, Monochoria vaginalis (Monochoria vaginalis [7]) | Herbicidal rate, Scirpus juncoides (Scirpus juncoides [8]) | Herbicidal rate, Echinochloa crus-galli (Echinochloa crus-galli [11]) | Herbicidal rate, southern crabgrass (southern crabgrass [12]) | Herbicidal rate, Amaranthus viridis (Amaranthus viridis [13]) | Herbicidal rate, Chenopodium album (Chenopodium album [14]) | Herbicidal rate, Echinochloa crus-galli (Echinochloa crus-galli [15])
80%: Herbicidal rate, Lindernia pyxidaria (Lindernia pyxidaria [6]) | Herbicidal rate, southern crabgrass (southern crabgrass [16])
60%: Herbicidal rate, Amaranthus viridis (Amaranthus viridis [9]) | Herbicidal rate, Chenopodium album (Chenopodium album [10])
100%: Herbicidal rate, Echinochloa crus-galli (Echinochloa crus-galli [1]) | Herbicidal rate, Lindernia pyxidaria (Lindernia pyxidaria [2]) | Herbicidal rate, Monochoria vaginalis (Monochoria vaginalis [3]) | Herbicidal rate, Scirpus juncoides (Scirpus juncoides [4]) | Herbicidal rate, Echinochloa crus-galli (Echinochloa crus-galli [5])

CCCOC(=O)N(c1ccccc1Cc1c(C)n(C2CCCC2OC)oc1=O)S(=O)(=O)C(F)(F)F (stereo not shown) [Compound 200]
100%: Herbicidal rate, Echinochloa crus-galli (Echinochloa crus-galli [1]) | Herbicidal rate, Lindernia pyxidaria (Lindernia pyxidaria [2]) | Herbicidal rate, Monochoria vaginalis (Monochoria vaginalis [3]) | Herbicidal rate, Scirpus juncoides (Scirpus juncoides [4]) | Herbicidal rate, Echinochloa crus-galli (Echinochloa crus-galli [5])
60%: Herbicidal rate, Amaranthus viridis (Amaranthus viridis [9]) | Herbicidal rate, Chenopodium album (Chenopodium album [10])
80%: Herbicidal rate, Lindernia pyxidaria (Lindernia pyxidaria [6]) | Herbicidal rate, southern crabgrass (southern crabgrass [16])
90%: Herbicidal rate, Monochoria vaginalis (Monochoria vaginalis [7]) | Herbicidal rate, Scirpus juncoides (Scirpus juncoides [8]) | Herbicidal rate, Echinochloa crus-galli (Echinochloa crus-galli [11]) | Herbicidal rate, southern crabgrass (southern crabgrass [12]) | Herbicidal rate, Amaranthus viridis (Amaranthus viridis [13]) | Herbicidal rate, Chenopodium album (Chenopodium album [14]) | Herbicidal rate, Echinochloa crus-galli (Echinochloa crus-galli [15])

COC1CCCC1n1oc(=O)c(Cc2ccccc2N(C(=O)C(C)C)S(=O)(=O)C(F)(F)F)c1C (stereo not shown) [Compound 113]
60%: Herbicidal rate, Amaranthus viridis (Amaranthus viridis [9]) | Herbicidal rate, Chenopodium album (Chenopodium album [10])
80%: Herbicidal rate, Lindernia pyxidaria (Lindernia pyxidaria [6]) | Herbicidal rate, southern crabgrass (southern crabgrass [16])
100%: Herbicidal rate, Echinochloa crus-galli (Echinochloa crus-galli [1]) | Herbicidal rate, Lindernia pyxidaria (Lindernia pyxidaria [2]) | Herbicidal rate, Monochoria vaginalis (Monochoria vaginalis [3]) | Herbicidal rate, Scirpus juncoides (Scirpus juncoides [4]) | Herbicidal rate, Echinochloa crus-galli (Echinochloa crus-galli [5])
90%: Herbicidal rate, Monochoria vaginalis (Monochoria vaginalis [7]) | Herbicidal rate, Scirpus juncoides (Scirpus juncoides [8]) | Herbicidal rate, Echinochloa crus-galli (Echinochloa crus-galli [11]) | Herbicidal rate, southern crabgrass (southern crabgrass [12]) | Herbicidal rate, Amaranthus viridis (Amaranthus viridis [13]) | Herbicidal rate, Chenopodium album (Chenopodium album [14]) | Herbicidal rate, Echinochloa crus-galli (Echinochloa crus-galli [15])
